Measurements published in patent publication US20190367516A1 (Bayer Pharma Aktiengesellschaft, priority 2015, published 2019).
Read-outs that look alike come from different tables or passages of the source.

How the values were obtained:
human M2 receptor [1] = target: T1, human M2 receptor (Homo sapiens, UniProt P08172); type: cell-based; settings: shift of acetylcholine dose-response curve (Allosteric EC50 shift); α >1 = positive cooperativity
T1 sequence (P08172 1-466): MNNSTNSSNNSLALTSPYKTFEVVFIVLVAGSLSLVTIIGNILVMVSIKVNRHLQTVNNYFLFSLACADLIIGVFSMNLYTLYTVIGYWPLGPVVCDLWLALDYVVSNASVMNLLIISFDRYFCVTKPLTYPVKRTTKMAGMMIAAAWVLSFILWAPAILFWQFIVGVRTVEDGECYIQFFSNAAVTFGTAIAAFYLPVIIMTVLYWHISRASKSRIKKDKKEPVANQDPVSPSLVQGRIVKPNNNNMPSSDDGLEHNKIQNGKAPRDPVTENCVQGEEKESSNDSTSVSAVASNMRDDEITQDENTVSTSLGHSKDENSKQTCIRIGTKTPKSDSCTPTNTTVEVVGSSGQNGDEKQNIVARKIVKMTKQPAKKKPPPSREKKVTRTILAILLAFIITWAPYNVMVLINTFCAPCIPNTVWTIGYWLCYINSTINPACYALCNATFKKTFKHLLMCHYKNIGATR
Description: B-1.2. Determination of Positive Cooperativity (α Factor)
In contrast to the EC50 determination of the test substances (see B-1.1), however, this is not done using one acetylcholine concentration; instead, every concentration of the test substance is combined with an acetylcholine 8-point dose-response curve. […] The shift in the acetylcholine dose-response curve in the presence of increasing concentrations of the test substance is analysed and quantified by means of GraphPad PRISM (Allosteric EC50 shift). […] Positive cooperativity is the hallmark of a positive allosteric modulator. […] The greater the magnitude of the α value, the greater the extent of cooperativity between orthosteric and allosteric.

human M2 receptor [2] = target: T1, human M2 receptor; settings: for Emax: read-out: Efficiency, boosting of the acetylcholine effect at EC20 acetylcholine concentration
[3] = Receptor activity EC50, allosteric potency at EC20 acetylcholine, M2-GIRK1/4 reporter cells, in some cases mean of two or more determinations
[4] = Receptor activity EC50, M2-GIRK1/4 activation test, acetylcholine at EC20, allosteric potency, in some cases mean values from two or more determinations

EC50 (human M2 receptor [2]; [3])	Emax (human M2 receptor [2]; M2-GIRK1/4 reporter cells)	EC50 (human M2 receptor [2]; [4])	SMILES	Cooperativity (alpha factor) (human M2 receptor [1])
–	–	–	CCC(NC(=O)c1cn(-c2c(F)cc(F)cc2F)c2nc(N3C[C@@H](O)[C@H](O)C3)ccc2c1=O)C(F)(F)C(F)(F)F (single isomer, unassigned) [Example 524]	60
89 nM	80%	–	CC[C@@H](NC(=O)c1cn(-c2c(Cl)cccc2Cl)c2nc(N3CC4CC4(O)C3)ccc2c1=O)C(F)(F)F (stereo partly drawn) [Example 652, 1-(2,6-Dichlorophenyl)-7-[1-hydroxy-3-azabicyclo[3.1.0]hex-3-yl]-4-oxo-N-[(2R)-1,1,1-trifluorobutan-2-yl]-1,4-dihydro-1,8-naphthyridine-3-carboxamide]	–
89 nM	86.5%	–	O=C(NC12CC(C1)C2)c1cn(-c2c(F)cc(F)cc2F)c2nc(N3CCNC3=O)ccc2c1=O [Example 653, N-(Bicyclo[1.1.1]pent-1-yl)-4-oxo-7-(2-oxoimidazolidin-1-yl)-1-(2,4,6-trifluorophenyl)-1,4-dihydro-1,8-naphthyridine-3-carboxamide]	–
93 nM	84%	–	CC[C@H](NC(=O)c1cn(-c2c(Cl)cc(F)cc2Cl)c2nc(N3CCNC3=O)ccc2c1=O)C(F)(F)F [Example 654, 1-(2,6-Dichloro-4-fluorophenyl)-4-oxo-7-(2-oxoimidazolidin-1-yl)-N-[(2S)-1,1,1-trifluorobutan-2-yl]-1,4-dihydro-1,8-naphthyridine-3-carboxamide]	–
97 nM	98%	–	CC1(NC(=O)c2cn(-c3c(F)cc(F)cc3F)c3nc(N4C[C@@H](O)[C@H](O)C4)ccc3c2=O)CC(F)(F)C1 [Example 655, N-(3,3-Difluoro-1-methylcyclobutyl)-7-[(3R,4R)-3,4-dihydroxypyrrolidin-1-yl]-4-oxo-1-(2,4,6-trifluorophenyl)-1,4-dihydro-1,8-naphthyridine-3-carboxamide]	–
100 nM	91.5%	–	CC1(NC(=O)c2cn(-c3c(F)cc(F)cc3F)c3nc(N4CCNC4=O)ccc3c2=O)CC(F)(F)C1 [Example 656, N-(3,3-Difluoro-1-methylcyclobutyl)-4-oxo-7-(2-oxoimidazolidin-1-yl)-1-(2,4,6-trifluorophenyl)-1,4-dihydro-1,8-naphthyridine-3-carboxamide]	–
100 nM	85.3%	–	CC[C@@H](NC(=O)c1cn(-c2ccc(F)cc2F)c2nc(N3C(=O)C(C)(C)C(O)C3C)ccc2c1=O)C(F)(F)F (stereo partly drawn) [Example 657, 1-(2,4-Difluorophenyl)-7-[4-hydroxy-3,3,5-trimethyl-2-oxopyrrolidin-1-yl]-4-oxo-N-[(2R)-1,1,1-trifluorobutan-2-yl]-1,4-dihydro-1,8-naphthyridine-3-carboxamide]	–
6 nM	100%	–	CC(C)C[C@@H](NC(=O)c1cn(-c2c(F)cc(F)cc2F)c2nc(N3C[C@@H](O)CC3=O)ccc2c1=O)C(F)(F)F [Example 658, 7-[(4S)-4-Hydroxy-2-oxopyrrolidin-1-yl]-4-oxo-N-[(2R)-1,1,1-trifluoro-4-methylpentan-2-yl]-1-(2,4,6-trifluorophenyl)-1,4-dihydro-1,8-naphthyridine-3-carboxamide]	–
102 nM	84.5%	–	O=C(N[C@@H](C1CC1)C(F)(F)F)c1cn(-c2c(F)cc(F)cc2F)c2nc(N3CCC[C@H]3CO)ccc2c1=O [Example 660, N-[(1S)-1-Cyclopropyl-2,2,2-trifluoroethyl]-7-[(2S)-2-(hydroxymethyl)pyrrolidin-1-yl]-4-oxo-1-(2,4,6-trifluorophenyl)-1,4-dihydro-1,8-naphthyridine-3-carboxamide]	–
48 nM	95.5%	–	O=C(N[C@@H](C1CC1)C(F)(F)F)c1cn(-c2c(F)cc(F)cc2F)c2nc(N3CCC[C@@H]3CO)ccc2c1=O [Example 661, N-[(1 S)-1-Cyclopropyl-2,2,2-trifluoroethyl]-7-[(2R)-2-(hydroxymethyl)pyrrolidin-1-yl]-4-oxo-1-(2,4,6-trifluorophenyl)-1,4-dihydro-1,8-naphthyridine-3-carboxamide]	–
38 nM	100%	–	O=C(N[C@@H](C1CC1)C(F)(F)F)c1cn(-c2c(F)cc(F)cc2F)c2nc(N3CC(O)C3)ccc2c1=O [Example 662, N-[(1S)-1-Cyclopropyl-2,2,2-trifluoroethyl]-7-(3-hydroxyazetidin-1-yl)-4-oxo-1-(2,4,6-trifluorophenyl)-1,4-dihydro-1,8-naphthyridine-3-carboxamide]	–
30 nM	90.5%	–	O=C(N[C@@H](C1CC1)C(F)(F)F)c1cn(-c2c(F)cc(F)cc2F)c2nc(N3CCC(O)(CO)CC3)ccc2c1=O [Example 663, N-[(1 S)-1-Cyclopropyl-2,2,2-trifluoroethyl]-7-[4-hydroxy-4-(hydroxymethyl)piperidin-1-yl]-4-oxo-1-(2,4,6-trifluorophenyl)-1,4-dihydro-1,8-naphthyridine-3-carboxamide]	–
100 nM	98%	–	O=C(N[C@@H](C1CC1)C(F)(F)F)c1cn(-c2c(F)cc(F)cc2F)c2nc(N(CCO)CCO)ccc2c1=O [Example 664, 7-[Bis(2-hydroxyethyl)amino]-N-[(1S)-1-cyclopropyl-2,2,2-trifluoroethyl]-4-oxo-1-(2,4,6-trifluorophenyl)-1,4-dihydro-1,8-naphthyridine-3-carboxamide]	–
73 nM	92.5%	–	CC1(O)CCCN(c2ccc3c(=O)c(C(=O)N[C@@H](C4CC4)C(F)(F)F)cn(-c4c(F)cc(F)cc4F)c3n2)C1 (stereo partly shown) [Example 665, N-[(1 S)-1-Cyclopropyl-2,2,2-trifluoroethyl]-7-[3-hydroxy-3-methylpiperidin-1-yl]-4-oxo-1-(2,4,6-trifluorophenyl)-1,4-dihydro-1,8-naphthyridine-3-carboxamide]	–
3850 nM	100%	–	O=C(N[C@@H](C1CC1)C(F)(F)F)c1cn(-c2c(F)cc(F)cc2F)c2nc(N3C[C@@H](C(=O)O)OC3=O)ccc2c1=O [Example 667, (5S)-3-[6-{[(1S)-1-Cyclopropyl-2,2,2-trifluoroethyl]carbamoyl}-5-oxo-8-(2,4,6-trifluorophenyl)-5,8-dihydro-1,8-naphthyridin-2-yl]-2-oxo-1,3-oxazolidine-5-carboxylic acid]	–
89 nM	100%	–	NC(=O)[C@@H]1CN(c2ccc3c(=O)c(C(=O)N[C@@H](C4CC4)C(F)(F)F)cn(-c4c(F)cc(F)cc4F)c3n2)C(=O)O1 [Example 668, 7-[(5S)-5-Carbamoyl-2-oxo-1,3-oxazolidin-3-yl]-N-[(1 S)-1-cyclopropyl-2,2,2-trifluoroethyl]-4-oxo-1-(2,4,6-trifluorophenyl)-1,4-dihydro-1,8-naphthyridine-3-carboxamide]	–
106 nM	84.9%	–	COC(=O)[C@H]1CN(c2ccc3c(=O)c(C(=O)N[C@@H](C4CC4)C(F)(F)F)cn(-c4c(F)cc(F)cc4F)c3n2)C(=O)O1 [Example 669, Methyl (5R)-3-[6-{[(1S)-1-cyclopropyl-2,2,2-trifluoroethyl]carbamoyl}-5-oxo-8-(2,4,6-trifluorophenyl)-5,8-dihydro-1,8-naphthyridin-2-yl]-2-oxo-1,3-oxazolidine-5-carboxylate]	–
1450 nM	66.5%	–	O=C(N[C@@H](C1CC1)C(F)(F)F)c1cn(-c2c(F)cc(F)cc2F)c2nc(N3C[C@H](C(=O)O)OC3=O)ccc2c1=O [Example 670, (5R)-3-[6-{[(1S)-1-Cyclopropyl-2,2,2-trifluoroethyl]carbamoyl}-5-oxo-8-(2,4,6-trifluorophenyl)-5,8-dihydro-1,8-naphthyridin-2-yl]-2-oxo-1,3-oxazolidine-5-carboxylic acid]	–
100 nM	94%	–	NC(=O)[C@H]1CN(c2ccc3c(=O)c(C(=O)N[C@@H](C4CC4)C(F)(F)F)cn(-c4c(F)cc(F)cc4F)c3n2)C(=O)O1 [Example 671, 7-[(5R)-5-Carbamoyl-2-oxo-1,3-oxazolidin-3-yl]-N-[(15)-1-cyclopropyl-2,2,2-trifluoroethyl]-4-oxo-1-(2,4,6-trifluorophenyl)-1,4-dihydro-1,8-naphthyridine-3-carboxamide]	–
–	–	117 nM	CC(C)Nc1ccc2c(=O)c(C(=O)NC34CCC(CC3)CC4)cn(-c3ccc(F)cc3F)c2n1 [compound 159]	–
–	–	166 nM	O=C(NCc1c(Cl)cccc1Cl)c1cn(-c2ccc(F)cc2F)c2nc(N3CC(O)CC3=O)ccc2c1=O (stereo not shown) [compound 183]	–
–	–	156 nM	CC(C)(NC(=O)c1cn(-c2ccc(F)cc2F)c2nc(N3CCCS3(=O)=O)ccc2c1=O)c1c(F)cccc1F [compound 185]	–
